# Assay: Release from two-component films with barrier layers
# Format: physicochemical
# Text: In one exemplary embodiment, a range of strategies were employed to control the relative positions of multiple, labeled species within a single film by constructing physical barriers to separate the two components. In one embodiment, films were constructed containing 20-40 base layers of polymer 1/HEP, followed by a set of “barrier” layers including polymer 1/SPS (degradable), PDAC/SPS (non-degradable), thermally cross-linked PAH/PAA, or nothing at all, followed by 20-40 surface layers of polymer 1/DS (FIG. 18). A similar set of films was also constructed, but with the order of the labeled components reversed (e.g., DS base layers and HEP surface layers).
# Thus, the use of a single covalently cross-linked PAH/PAA layer was sufficient to separate the two components when deposited onto the surface of the linearly growing polymer 1/DS system, as evidenced by the two-stage release profile. Following a delay of approximately 25 h, the underlying DS was released with a linear profile.
# FIG. 27A illustrates the effect of barrier layers on the average release rate from the exemplary two-component systems described above. It is apparent that the average release rate (taken as the average slope of the initial, linear portion of the release curve) of systems including of an underlying layer of linearly-growing DS can be broadly controlled using both multiple layers of a nondegradable system PDAC/SPS or as little as a single layer of cross-linked PAH/PAA. Further, by tuning any of the parameters affecting the degree of cross-linking (e.g., cross-linking time, temperature, number of cross-linked layers), the release rate can be dramatically altered. […] Thus, milder cross-linking conditions (e.g., lower temperatures) may allow for a greater degree of flexibility in tailoring release profiles. Further, aqueous, chemical cross-linking techniques using common biochemical reagents such as carbodiimides may represent a suitable alternative to thermal cross-linking when low temperature fabrication is required. Nevertheless, one skilled in the art will recognize that a range of approaches may be employed to control the release of underlying species, particularly when the underlying species lacks the ability to diffuse throughout the film.
# General Considerations. A Harrick PDC-32G plasma cleaner was used to etch silicon substrates (3 cm×2 cm) following rinsing with methanol and deionized water and drying under a stream of dry nitrogen. Layer-by-layer thin films were deposited using an automated Carl Zeiss HMS Series Programmable Slide Stainer. Absorbances from growing films were measured using Fourier Transform Infrared Spectroscopy (FTIR) using a Nicolet Magna IR 550 Series II Spectrometer. Zinc selenide substrates used for transmission FTIR analysis were prepared using the same method employed for silicon substrates, Ellipsometric measurements for film thickness were conducted using a Gaertner Variable Angle Ellipsometer ([…], 70° incident angle) and Gaertner Ellipsometer Measurement Program (GEMP) Version 1.2 software interface. The release of radiolabeled polymers was quantified using a Tri-carb liquid scintillation counter (Model U2200). […] (PAH/PAA) films were thermally cross-linked by incubating films in a Yamoto DVS400 gravity convection oven at 215° C. for indicated time intervals.
# Release Studies. For drug release experiments, radiolabeled LbL thin films were first constructed by alternately depositing polymer 1 and the indicated radiolabeled drug(s). Radiolabled deposition solutions containing ^3H-heparin were prepared by combining 1 mL of 50 μCi/mL ^3H-heparin (0.30 mCi/mg, Mn=12500) with 35 mL of 100 mM acetate buffer. Unlabeled heparin (Mn=12500) was added to bring the total concentration of heparin (unlabeled plus labeled) to 2 mg/mL (1.5-2 μCi/mL ^3H). […]
# [1] = DS base layer, heparin surface layer, 50 (PDAC/SPS) non-degradable dividing layers
# [2] = DS base layer, heparin surface layer, 50 (Poly1/SPS) degradable dividing layers
# [3] = DS base layer, heparin surface layer, separated by a single cross-linked layer of (PAH/PAA)
# [4] = DS base layer, heparin surface layer, without dividing layers
# [5] = heparin base layer, DS surface layer, (PDAC/SPS)50 non-degradable dividing layers
# [6] = heparin base layer, DS surface layer, (Poly1/SPS)20 degradable dividing layers
# [7] = heparin base layer, DS surface layer, without dividing layers
# [8] = polymer 1/DS base, single PAH/PAA bilayer cross-linked 20 min at 215° C., polymer 1/HEP surface
release pattern [1],release pattern [2],release pattern [3],release pattern [4],"change in release rate (cross-linking times greater than 1.5 h at 215° C., or barriers with more than five cross-linked layers (data not shown))",release pattern [5],release pattern [6],release pattern [7],"release of underlying DS (multiple layers of PAH/PAA cross-linked longer than 1.5 h at 215° C., up to 45 days)","average rate of DS release, slower than in corresponding films without covalently cross-linked barrier layers [8]",delay before release of underlying DS [8],effect of barrier layer on release of heparin (heparin-loaded films coated with a single layer of (PAH/PAA) cross-linked 45 min at 215° C. vs untreated films),Substance
simultaneous release,simultaneous release,sequential release,simultaneous release,one to two order of magnitude decreases,simultaneous release,simultaneous release,simultaneous release,no release of DS was observed,approximately 60%,approximately 25 h,–,Dextran sulfate sodium salt [DS]
simultaneous release,simultaneous release,sequential release,simultaneous release,–,simultaneous release,simultaneous release,simultaneous release,–,–,–,does not significantly delay,Heparin sodium salt

# Reference: US8105652B2, “Methods of making decomposable thin films of polyelectrolytes and uses thereof” (Massachusetts Institute of Technology, priority 2002, dated 2012)
